Reference: the NIST ThermoML archive (doi:10.1007/s10765-013-1492-1)
Several values for one entry are separate records, joined by “and”; a condition that tells them apart may be missing. Identical values can stand only once.

Tests used:
[1] = 101 kPa, Liquid
[2] = xn = mol fraction of the nth substance listed; settings: 101 kPa, Liquid

O=Cc1ccccc1 [benzaldehyde]
[1]
Settings | mass density | speed of sound | viscosity
303.15 K | 1031.7 kg/m3 and 1035.7 kg/m3 | 1452 m/s | 1.32 mPa·s
308.15 K | 1031.3 kg/m3 | 1428 m/s and 1428.8 m/s | 1.249 mPa·s and 1.249 mPa·s
313.15 K | 1028 kg/m3 | 1413 m/s | 1.242 mPa·s and 1.241 mPa·s

O=Cc1ccccc1 [benzaldehyde] + Clc1ccccc1
[2]
Settings | mass density, 303.15 K [kg/m3] | mass density, 308.15 K [kg/m3] | mass density, 313.15 K [kg/m3] | speed of sound, 303.15 K [m/s] | speed of sound, 308.15 K [m/s] | speed of sound, 313.15 K [m/s] | viscosity, 303.15 K [mPa·s] | viscosity, 308.15 K [mPa·s] | viscosity, 313.15 K [mPa·s]
x1 = 0.1006 | 1084.3 | 1082 | 1077.9 | 1265 | 1241 | 1235 | 0.7984 | 0.7805 | 0.7641
x1 = 0.2011 | 1081.4 | 1079.1 | 1075 | 1282 | 1258 | 1249 | 0.8332 | 0.8123 | 0.7949
x1 = 0.3015 | 1077.2 | 1075 | 1070.2 | 1299 | 1277 | 1267 | 0.8814 | 0.8532 | 0.8407
x1 = 0.4017 | 1071.9 | 1070.3 | 1065.2 | 1318 | 1296 | 1286 | 0.9297 | 0.905 | 0.8891
x1 = 0.5017 | 1066.5 | 1065.2 | 1059.9 | 1337 | 1316 | 1305 | 0.9803 | 0.9559 | 0.9425
x1 = 0.6017 | 1060.9 | 1059.8 | 1054.6 | 1356 | 1337 | 1325 | 1.029 | 1.009 | 0.9925
x1 = 0.7015 | 1055 | 1053.8 | 1049.1 | 1376 | 1358 | 1345 | 1.082 | 1.061 | 1.045
x1 = 0.8011 | 1048.5 | 1047.5 | 1043.3 | 1397 | 1380 | 1366 | 1.134 | 1.118 | 1.099
x1 = 0.9006 | 1041.6 | 1040.8 | 1036.9 | 1418 | 1403 | 1387 | 1.196 | 1.184 | 1.163
x1 = 1 | 1031.7 | 1031.3 | 1028 | 1452 | 1428 | 1413 | 1.32 | 1.249 | 1.242

O=Cc1ccccc1 [benzaldehyde] + O=[N+]([O-])c1ccccc1
[2]
Settings | mass density, 303.15 K [kg/m3] | mass density, 308.15 K [kg/m3] | mass density, 313.15 K [kg/m3] | speed of sound, 303.15 K [m/s] | speed of sound, 308.15 K [m/s] | speed of sound, 313.15 K [m/s] | viscosity, 303.15 K [mPa·s] | viscosity, 308.15 K [mPa·s] | viscosity, 313.15 K [mPa·s]
x1 = 0.1018 | 1170.8 | 1170.6 | 1166.6 | 1409.5 | 1366.2 | 1332.4 | 1.556 | 1.546 | 1.524
x1 = 0.2032 | 1160.2 | 1159.9 | 1150.6 | 1412 | 1372 | 1340 | 1.534 | 1.504 | 1.472
x1 = 0.3043 | 1143 | 1142.6 | 1142.4 | 1414.6 | 1378 | 1348 | 1.495 | 1.456 | 1.45
x1 = 0.4049 | 1130.6 | 1129.8 | 1121.9 | 1417.5 | 1384 | 1356.2 | 1.455 | 1.429 | 1.402
x1 = 0.5051 | 1117.6 | 1117 | 1110.9 | 1420.6 | 1390.6 | 1364.8 | 1.427 | 1.411 | 1.383
x1 = 0.6049 | 1102.6 | 1101.8 | 1101.1 | 1424.5 | 1397.8 | 1374 | 1.405 | 1.389 | 1.371
x1 = 0.7042 | 1083.9 | 1082.7 | 1080.7 | 1428.3 | 1405 | 1383 | 1.359 | 1.354 | 1.343
x1 = 0.8032 | 1065.2 | 1065 | 1064.5 | 1432.5 | 1412.5 | 1392.3 | 1.333 | 1.316 | 1.307
x1 = 0.9018 | 1050.9 | 1048.8 | 1043.8 | 1437 | 1420 | 1401.7 | 1.295 | 1.282 | 1.267
x1 = 1 | 1035.7 | 1031.3 | 1028 | 1452 | 1428.8 | 1413 | 1.32 | 1.249 | 1.241

Clc1ccccc1 [chlorobenzene]
[1]
Settings | mass density [kg/m3] | speed of sound [m/s] | viscosity [mPa·s]
303.15 K | 1086.6 | 1249 | 0.7147
308.15 K | 1085.1 | 1224 | 0.7469
313.15 K | 1081.1 | 1220 | 0.7383

Clc1ccccc1 [chlorobenzene] + O=Cc1ccccc1
[2], x2 = 0
Settings | mass density [kg/m3] | speed of sound [m/s] | viscosity [mPa·s]
303.15 K | 1086.6 | 1249 | 0.7147
308.15 K | 1085.1 | 1224 | 0.7469
313.15 K | 1081.1 | 1220 | 0.7383

O=[N+]([O-])c1ccccc1 [nitrobenzene]
[1]
Settings | mass density [kg/m3] | speed of sound [m/s] | viscosity [mPa·s]
303.15 K | 1189.6 | 1407 | 1.618
308.15 K | 1189.4 | 1361 | 1.618
313.15 K | 1187.2 | 1326 | 1.61

O=[N+]([O-])c1ccccc1 [nitrobenzene] + O=Cc1ccccc1
[2], x2 = 0
Settings | mass density [kg/m3] | speed of sound [m/s] | viscosity [mPa·s]
303.15 K | 1189.6 | 1407 | 1.618
308.15 K | 1189.4 | 1361 | 1.618
313.15 K | 1187.2 | 1326 | 1.61
